Data from patent publication US20210161883A1, “EZH2 INHIBITOR-INDUCED GENE EXPRESSION” (Constellation Pharmaceuticals, Inc., priority 2017, published 2021).
“Also recorded” adds a separate entry of the source.

Key:
[1] = test system: global H3K27me3 levels in Karpas-422 GCB-DLBCL cells; test: H3K27me3 western blotting in Karpas-422 cells treated with EZH2 inhibitors; type: cell-based, human; settings: 1.5 μM, 4 days, vs DMSO, total H3 as control
Experimental: Lymphoma cell lines were grown in 10 ml cultures (as described in 2.1). […] After drug treatment, cells were centrifuged at 500×g for 3 min, supernatant was removed, and cell pellet was resuspended in 0.75 ml Trizol Reagent (Life Technologies, catalog #15596-026). RNA was extracted as per the manufacturer's protocol, resuspended in nuclease-free water, quantified using a NanoDrop 2000 UV-vis spectrophotometer (Thermo Scientific), and sent to Ocean Ridge Biosciences (http://www.oceanridgebio.com/) for RNA-sequencing. […]
In order to detect potential EZH2 inhibitor-mediated gene expression changes that could serve as a manifestation of target engagement, Karpas-422 GCB-DLBCL cells were treated with vehicle (dimethyl sulfoxide; DMSO) or Compound 1 for 4 days. […] The samples that were committed to RNA-sequencing were analyzed for changes in H3K27me3 levels by western blotting. […]

[2] = test system: RL xenograft; test: Multiplexed QuantiGene assay of signature genes in RL mouse xenograft tumors; type: in vivo; settings: 200 mg/kg twice daily, day 18, tumors harvested 6 hours post-last dose
Experimental: (§1) To verify the gene signature as a readout of target engagement and not phenotypic responsive, an EZH2 inhibitor-insensitive GCB-DLBCL cell line, RL, was utilized in a mouse xenograft model. The RL xenograft bearing mice were treated twice daily with 200 mg/kg Compound 2 or vehicle control for 18 days. […] Tumors were harvested 6 hours post-last dose on day 18 of treatment and processed and analyzed using the QuantiGene® Plex assay, as described above.
(§2) For each gene in each sample, the background median fluorescence intensity (MFI) value (recorded on the Luminex Magpix) was subtracted from the gene's measured MFI value. […]
(§3) Following regularization, the data from each well was processed independently by first generating a normalization factor by taking the geometric mean of regularized background-subtracted MFI values for 4 housekeeping genes (ACTB, POLR2A, PPIB, TBP). […] If more than 1 technical replicate was run for an individual sample, an average value was then calculated for each gene. These values were then converted to log 2 space, and log 2 fold change values were determined by subtracting vehicle/control values from treated values. […]
To determine the statistical significance of the engagement score, a phenotype permutation test was performed by randomly assigning the empirically determined expression values for each gene to the control or treated condition. […]

[3] = test system: RL xenograft (EZH2 inhibitor-insensitive GCB-DLBCL cell line); test: RL mouse xenograft tumor volume; type: in vivo; settings: 200 mg/kg twice daily, 18 days
Experimental: as §1

[4] = test system: Karpas-422 GCB-DLBCL cells; test: RNA-sequencing gene expression profiling of Karpas-422 cells; type: cell-based, human; settings: 1.5 μM, 4 days
Experimental: Lymphoma cell lines were grown in 10 ml cultures (as described in 2.1). Cells were treated with 0.1% DMSO, 1.5 μM Compound 1 or in the presence of 1.5 μM other EZH2 inhibitors such as GSK126 and EPZ6438 for 4 days. After drug treatment, cells were centrifuged at 500×g for 3 min, supernatant was removed, and cell pellet was resuspended in 0.75 ml Trizol Reagent (Life Technologies, catalog #15596-026). RNA was extracted as per the manufacturer's protocol, resuspended in nuclease-free water, quantified using a NanoDrop 2000 UV-vis spectrophotometer (Thermo Scientific), and sent to Ocean Ridge Biosciences (http://www.oceanridgebio.com/) for RNA-sequencing. Cell samples were collected and total RNA was prepared (see 2.2). […] (2) 7 DLBCL cell lines treated for 4 days with GSK343 (generated in two separate experiments, with HT and SUDHL6 comprising the first experiments, the other 5 cell lines in a second experiment. For the HT and SUDHL6 cell samples in dataset 2, reads were aligned to the hg19 genome using bowtie version 0.12.9. The other datasets were aligned to the hg19 genome with Tophat 1.4.1 The aligned read files were sorted and duplicates removed using sort and rmdup functions from samtools version 0.1.182. See Li, H. et al. The Sequence Alignment/Map format and SAMtools. Bioinformatics 25, 2078-2079 (2009). […]

[5] = test system: Karpas-422 xenograft; test: Multiplexed QuantiGene assay of signature genes in Karpas-422 mouse xenograft tumors; type: in vivo
Experimental: (§4) FIGS. 4A and B illustrate a comparison of Compound 1-mediated H3K27me3 level and gene expression changes in phenotypically responsive Karpas-422 xenografts where (A) represents tumor samples (n=4) from a Karpas-422 mouse xenograft experiment in which mice were dosed twice daily, orally with vehicle, 100 or 200 mg/kg of Compound 1 for 4, 7, or 14 days, and were analyzed by ELISA assays to determine H3K27me3 levels; and (B) is the same tumor samples described in (A) (n=4), but were analyzed by a multiplexed QuantiGene® assay for the transcript levels of 50 genes, 4 of which were housekeeping.
For isolation of RNA from tissues: Tumor samples from a Karpas-422 mouse xenograft experiment in which mice were dosed BID with vehicle, 100 or 200 mpk Compound 1 for 4, 7, or 14 days, were obtained. Tumors were frozen in liquid nitrogen, then pulverized. A small aliquot of frozen, pulverized tissue was resuspended in 600 μl buffer RLT (Qiagen) containing 65 mM DTT, applied to a QIAShredder column (Qiagen), and centrifuged for 3 min at 20,000×g. […] RNA was eluted in nuclease-free water, and concentrations were normalized following quantitation on a NanoDrop 2000 UV-vis spectrophotometer.
Initial tests were performed to determine the linearity of the QuantiGene® Plex Set, followed by full validation of the assay showing time- and dose-dependent gene expression changes in a mouse xenograft treated with Compound 1. […] The QuantiGene® assay was performed as per the manufacturer's protocol, and quantitated on a Luminex Magpix. […]
as §2
as §3, with “gene.” for “gene. These values were then converted to log 2 space, and log 2 fold change values were determined by subtracting vehicle/control values from treated values.”

[6] = test system: Karpas-422 cells; test: Multiplexed QuantiGene assay of EZH2-controlled signature genes in Karpas-422 cells in vitro; type: cell-based, human; settings: 1.5 μM, 4 days, vs DMSO
Experimental: The gene list described in Table 2 was submitted to Affymetrix, and a multiplexed QuantiGene® assay (https://www.ebioscience.com/application/gene-expression/quantigene-plex-assay.htm) probe set on the basis was generated specific to the human genome (see Appendix B). The primer and probe sequences used to generate the multiplex assay were not made available by the vendor.
In addition to validating the assay using a Karpas-422 mouse xenograft model, RNA from Karpas-422 cells treated with 1.5 μM Compound 1 for 4 days was also used. Samples were processed and quantitated as described above. […]
as §2, §3

[7] = test system: H3K27me3 levels in Karpas-422 xenografts; test: H3K27me3 ELISA of Karpas-422 mouse xenograft tumor samples; type: in vivo; settings: Karpas-422 xenograft, 100 or 200 mg/kg BID oral
Experimental: as §4

Row | SMILES | global H3K27me3 levels (western blotting) [1] | gene signature score (QuantiGene) [2] | tumor volume vs vehicle-treated mice [3] | gene expression changes compared with those of other EZH2 inhibitors (GSK126, EPZ-6438) [4] | number of genes with significantly changed expression ([4]; vs DMSO, log 2 fold change >0.8, p<0.05) [genes] | signature gene expression in tumors vs vehicle-treated tumors ([5]; 100 or 200 mg/kg BID oral, 4, 7 and 14 days, tumors harvested 6 hours post last dose) | gene expression signature (aggregate gene score), treatment arms vs vehicle arms ([5]; 100 or 200 mg/kg BID oral, all three time points (4, 7, 14 days)) | magnitude of signature gene expression changes in tumors compared with cells treated in vitro ([5]; 4 days, 100 mg/kg BID and 200 mg/kg BID, vs cells at 1.5 μM for 4 days) | signature gene expression (QuantiGene) [6] | H3K27me3 levels normalized to total histone H3 (ELISA) ([7]; 14 days, t-test p<0.05 vs vehicle) | H3K27me3 levels normalized to total histone H3 (ELISA) ([7]; earlier time points (4, 7 days))
1 | CCC(C)n1cc(C)c2c(C(=O)NCc3c(C)cc(C)[nH]c3=O)cc(-c3ccc(N4CCNCC4)nc3)cc21 (stereo not drawn) [GSK126, reference compound] | substantial loss of H3K27me3 | – | – | – | – | – | – | – | – | – | –
2 | CCS(=O)(=O)N1CCC([C@@H](C)n2c(C)c(C(=O)NCc3c(OC)cc(C)[nH]c3=O)c3ccccc32)CC1 [Compound 2] | – | statistically significant gene signature score | No reduction in tumor volume | – | – | – | – | – | – | – | –
3 | COc1cc(C)[nH]c(=O)c1CNC(=O)c1c(C)n([C@H](C)C2CCN(CC(F)(F)F)CC2)c2ccccc12 [Compound 1, (R)—N-((4-methoxy-6-methyl-2-oxo-1,2-dihydropyridin-3-yl)methyl)-2-methyl-1-(1-(1-(2,2,2-trifluoroethyl)piperidin-4-yl)ethyl)-1H-indole-3-carboxamide] | effectively reduced global H3K27me3 levels | – | – | remarkably similar | 604 | significant induction of signature genes in a dose- and time-dependent manner; also recorded: significant alteration of signature genes; also recorded: significantly induced EZH2-target genes | robust and statistically significant change | did not show the same magnitude of signature gene expression changes | significant increase and decrease of signature gene expression | significant reduction in H3K27me3 levels | not statistically significant
